Key:
[1] = test system: IL-1β induced IL-6 production (A549 cells); assay: Inhibition assay for IL-1β induced IL-6 production in A549 cells (Test Example 3); type: cell-based, human; conditions: at a concentration of 100 nmol/L, IL-1β stimulation, relative to dexamethasone
Protocol: A549 cells cultured in F-12 medium supplemented with 10% bovine serum for 3 to 5 days were transferred to a 96-well plate (50000 cells/well) and then were cultured overnight. […] After the medium was removed by suction, 60 μL of F-12 medium was added to each well, and 20 μL of the test compound diluted to 5-fold of the desired concentration with F-12 medium or 20 μL of 4 μmol/L dexamethasone was added thereto. The test compound and the dexamethasone used here were prepared beforehand by dissolving in dimethyl sulfoxide (DMSO) and diluting with F-12 medium so that the final concentration of DMSO became 0.1% v/v or lower. After 30-minute incubation under 5% CO2 atmosphere at 37° C., 20 μL of 4 nmol/L IL-1β diluted with F-12 medium was added to each well, and then incubation was performed under a 5% CO2 atmosphere at 37° C. for 12 to 18 hours. The 96-well plate was centrifuged at 300×g at 4° C. for 5 minutes, and then the culture supernatant was collected for use as a sample for IL-6 measurement. The IL-6 produced in the culture supernatant was quantified by the ELISA method (R&D Systems, product number: DY206, DouSet ELISA Development System Human IL-6), and the production inhibition rate was calculated by the following formula. […]

[2] = test system: transcription-promoting activity via the glucocorticoid receptor (A549/MMTV-LTR cells); type: cell-based; conditions: at a concentration of 300 nmol/L; relative to dexamethasone
Protocol: A pGL4.14 plasmid (Promega, product number: AY864928) having a cloned MMTV-LTR fragment upstream of the luciferase gene (−200 to +100 relative to the transcription initiation site) was introduced into A549 cells, and the obtained strain which is constitutively resistant to a selective antibiotic hygromycin B (A549/MMTV-LTR) was used for evaluation. The A549/MMTV-LTR cells were transferred to a 96-well plate (25000 cells/well) and were cultured overnight. […] Next, 20 μL of the test compound diluted to 5-fold of the desired concentration with F-12 medium or 20 μL of 4 μmol/L dexamethasone was added thereto, and the mixture was incubated under 5% CO2 at 37° C. for 6 hours. To each well, 50 μL of a luminescence reagent (Promega, product number: E2550 or E2650) was added, and the mixture was stirred to dissolve the cells, and the luciferase activity was measured by a plate reader (PerkinElmer, TopCount).
MMTV activity (%)=100×(luminescence amount in the presence of the compound−luminescence amount in the absence of the compound)/(luminescence amount in the presence of dexamethasone−luminescence amount in the absence of the compound)

CC/C(=C1\c2cc3cnn(C)c3cc2COc2ccccc21)c1cccc(NS(C)(=O)=O)c1 [Compound 2, (Z)-5-{1-[3-(methanesulfonamide)phenyl]propylidene}-1-methyl-5,11-dihydrobenzo[6,7]oxepino[4,3-f]indazole] was tested, and the “IL-6 production inhibitory activity” value [1] was at least 80% and the MMTV activity [2] was at most 10%.
